This note sets out measurements from ChEMBL document CHEMBL4342489, “Structure-Activity Relationship Evaluation of Wasp Toxin β-PMTX Leads to Analogs with Superior Activity for Human Neuronal Sodium Channels” (ACS Med Chem Lett, 2020).

For series [1], the target named is Sodium channel protein type 2 subunit alpha (Homo sapiens) (UniProt Q99250). Nature of the series: Activation of human Nav1.2 expressed in CHOK1 cells assessed as ratio of compound activation AUC to baseline activation AUC at 3.3 uM at -120 mV holding potential by Qpatch assay. The format is cell-based.
Series [2] deals with Sodium channel protein type 3 subunit alpha (Homo sapiens) (UniProt Q9NY46). Nature of the series: Activation of human Nav1.3 expressed in CHOK1 cells assessed as ratio of compound activation AUC to baseline activation AUC at 3.3 uM at -120 mV holding potential by Qpatch assay. Type of series: cell-based. A general note: The patch-clamp technique gives a direct electrical read-out from membranes.
Sequence of Sodium channel protein type 3 subunit alpha (Homo sapiens) (Q9NY46 whole entry, looked up): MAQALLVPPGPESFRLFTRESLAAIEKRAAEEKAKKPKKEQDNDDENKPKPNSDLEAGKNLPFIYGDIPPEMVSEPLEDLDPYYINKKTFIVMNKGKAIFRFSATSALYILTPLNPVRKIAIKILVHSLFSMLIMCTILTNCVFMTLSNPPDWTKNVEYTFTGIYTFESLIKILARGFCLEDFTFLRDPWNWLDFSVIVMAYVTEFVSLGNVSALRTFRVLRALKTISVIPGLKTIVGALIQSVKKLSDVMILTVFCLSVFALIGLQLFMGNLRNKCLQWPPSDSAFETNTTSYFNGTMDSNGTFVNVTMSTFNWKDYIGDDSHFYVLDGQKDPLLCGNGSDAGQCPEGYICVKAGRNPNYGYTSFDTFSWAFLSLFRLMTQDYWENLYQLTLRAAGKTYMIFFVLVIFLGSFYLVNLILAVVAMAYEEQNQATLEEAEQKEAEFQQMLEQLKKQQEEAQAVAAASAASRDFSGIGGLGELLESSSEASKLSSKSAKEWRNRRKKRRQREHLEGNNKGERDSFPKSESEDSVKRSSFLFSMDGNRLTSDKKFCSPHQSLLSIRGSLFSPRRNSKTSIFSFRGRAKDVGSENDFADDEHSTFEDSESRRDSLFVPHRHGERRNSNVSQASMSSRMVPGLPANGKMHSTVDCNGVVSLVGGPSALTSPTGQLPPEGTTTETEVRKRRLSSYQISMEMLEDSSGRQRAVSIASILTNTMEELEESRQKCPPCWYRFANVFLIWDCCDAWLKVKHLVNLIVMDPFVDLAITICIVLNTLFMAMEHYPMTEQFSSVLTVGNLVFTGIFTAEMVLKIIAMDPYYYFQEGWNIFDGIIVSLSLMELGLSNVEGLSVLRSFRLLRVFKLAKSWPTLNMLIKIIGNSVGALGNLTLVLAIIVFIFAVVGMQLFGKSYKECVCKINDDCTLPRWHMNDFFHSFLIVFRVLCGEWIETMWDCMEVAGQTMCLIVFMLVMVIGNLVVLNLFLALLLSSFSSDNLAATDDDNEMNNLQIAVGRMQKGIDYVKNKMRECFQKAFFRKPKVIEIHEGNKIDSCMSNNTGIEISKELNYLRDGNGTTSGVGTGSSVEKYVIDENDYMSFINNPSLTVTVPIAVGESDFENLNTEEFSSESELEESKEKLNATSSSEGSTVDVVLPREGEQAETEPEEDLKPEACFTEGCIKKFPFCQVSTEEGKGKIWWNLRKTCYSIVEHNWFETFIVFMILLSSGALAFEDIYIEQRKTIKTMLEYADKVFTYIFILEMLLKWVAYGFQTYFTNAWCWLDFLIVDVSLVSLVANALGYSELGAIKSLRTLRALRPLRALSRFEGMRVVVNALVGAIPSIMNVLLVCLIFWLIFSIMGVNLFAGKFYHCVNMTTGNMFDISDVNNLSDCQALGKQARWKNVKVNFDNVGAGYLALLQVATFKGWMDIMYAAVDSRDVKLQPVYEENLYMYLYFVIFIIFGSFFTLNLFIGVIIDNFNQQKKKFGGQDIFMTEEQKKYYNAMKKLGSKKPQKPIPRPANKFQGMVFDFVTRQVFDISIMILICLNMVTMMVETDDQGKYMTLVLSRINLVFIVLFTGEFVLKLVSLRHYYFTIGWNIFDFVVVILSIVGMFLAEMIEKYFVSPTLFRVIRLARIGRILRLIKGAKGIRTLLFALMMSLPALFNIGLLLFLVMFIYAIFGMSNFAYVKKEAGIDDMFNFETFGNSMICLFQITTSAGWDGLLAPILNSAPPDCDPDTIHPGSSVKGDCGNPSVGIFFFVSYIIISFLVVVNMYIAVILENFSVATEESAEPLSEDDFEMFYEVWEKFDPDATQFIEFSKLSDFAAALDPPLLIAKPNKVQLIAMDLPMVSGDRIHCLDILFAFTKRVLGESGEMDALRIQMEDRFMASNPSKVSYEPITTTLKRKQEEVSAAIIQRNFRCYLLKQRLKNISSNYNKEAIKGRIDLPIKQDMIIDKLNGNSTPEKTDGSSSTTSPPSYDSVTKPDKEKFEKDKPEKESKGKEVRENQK

The target of series [3] is Sodium channel protein type 1 subunit alpha (Homo sapiens) (UniProt P35498). The experiment in a line: Activation of human Nav1.1 expressed in HEK293 cells assessed as ratio of compound activation AUC to baseline activation AUC at 0.12 uM at -120 mV holding potential by Qpatch assay. The format is cell-based.
Series [4] shares this target. The experiment in a line: Activation of human Nav1.1 expressed in HEK293 cells assessed as ratio of compound activation AUC to baseline activation AUC at 0.37 uM at -120 mV holding potential by Qpatch assay. The format is cell-based.
For series [5] the target is unchanged. Nature of the series: Activation of human Nav1.1 expressed in HEK293 cells assessed as ratio of compound activation AUC to baseline activation AUC at 1.11 uM at -120 mV holding potential by Qpatch assay. Type of series: cell-based.
For series [6] the target is unchanged. The experiment in a line: Activation of human Nav1.1 expressed in HEK293 cells assessed as ratio of compound activation AUC to baseline activation AUC at 3.3 uM at -120 mV holding potential by Qpatch assay. The format is cell-based.
Series [7] addresses Sodium channel protein type 4 subunit alpha (Homo sapiens) (UniProt P35499). The experiment in a line: Activation of human Nav1.4 expressed in HEK293 cells assessed as ratio of compound activation AUC to baseline activation AUC at 3.3 uM at -120 mV holding potential by Qpatch assay. The format is cell-based.
Series [8] addresses Sodium channel protein type 5 subunit alpha (Homo sapiens, UniProt Q14524). Nature of the series: Activation of human Nav1.5 expressed in HEK293 cells assessed as ratio of compound activation AUC to baseline activation AUC at 3.3 uM at -120 mV holding potential by Qpatch assay. Type of series: cell-based. The following applies: hek293, 3.3 µM.
The target in series [9] is Sodium channel protein type 8 subunit alpha (Homo sapiens) (UniProt Q9UQD0). Nature of the series: Activation of human Nav1.6 expressed in HEK293 cells assessed as ratio of compound activation AUC to baseline activation AUC at 3.3 uM at -120 mV holding potential by Qpatch assay. The format is cell-based.
Sequence of Sodium channel protein type 8 subunit alpha (Homo sapiens) (Q9UQD0 whole entry, looked up): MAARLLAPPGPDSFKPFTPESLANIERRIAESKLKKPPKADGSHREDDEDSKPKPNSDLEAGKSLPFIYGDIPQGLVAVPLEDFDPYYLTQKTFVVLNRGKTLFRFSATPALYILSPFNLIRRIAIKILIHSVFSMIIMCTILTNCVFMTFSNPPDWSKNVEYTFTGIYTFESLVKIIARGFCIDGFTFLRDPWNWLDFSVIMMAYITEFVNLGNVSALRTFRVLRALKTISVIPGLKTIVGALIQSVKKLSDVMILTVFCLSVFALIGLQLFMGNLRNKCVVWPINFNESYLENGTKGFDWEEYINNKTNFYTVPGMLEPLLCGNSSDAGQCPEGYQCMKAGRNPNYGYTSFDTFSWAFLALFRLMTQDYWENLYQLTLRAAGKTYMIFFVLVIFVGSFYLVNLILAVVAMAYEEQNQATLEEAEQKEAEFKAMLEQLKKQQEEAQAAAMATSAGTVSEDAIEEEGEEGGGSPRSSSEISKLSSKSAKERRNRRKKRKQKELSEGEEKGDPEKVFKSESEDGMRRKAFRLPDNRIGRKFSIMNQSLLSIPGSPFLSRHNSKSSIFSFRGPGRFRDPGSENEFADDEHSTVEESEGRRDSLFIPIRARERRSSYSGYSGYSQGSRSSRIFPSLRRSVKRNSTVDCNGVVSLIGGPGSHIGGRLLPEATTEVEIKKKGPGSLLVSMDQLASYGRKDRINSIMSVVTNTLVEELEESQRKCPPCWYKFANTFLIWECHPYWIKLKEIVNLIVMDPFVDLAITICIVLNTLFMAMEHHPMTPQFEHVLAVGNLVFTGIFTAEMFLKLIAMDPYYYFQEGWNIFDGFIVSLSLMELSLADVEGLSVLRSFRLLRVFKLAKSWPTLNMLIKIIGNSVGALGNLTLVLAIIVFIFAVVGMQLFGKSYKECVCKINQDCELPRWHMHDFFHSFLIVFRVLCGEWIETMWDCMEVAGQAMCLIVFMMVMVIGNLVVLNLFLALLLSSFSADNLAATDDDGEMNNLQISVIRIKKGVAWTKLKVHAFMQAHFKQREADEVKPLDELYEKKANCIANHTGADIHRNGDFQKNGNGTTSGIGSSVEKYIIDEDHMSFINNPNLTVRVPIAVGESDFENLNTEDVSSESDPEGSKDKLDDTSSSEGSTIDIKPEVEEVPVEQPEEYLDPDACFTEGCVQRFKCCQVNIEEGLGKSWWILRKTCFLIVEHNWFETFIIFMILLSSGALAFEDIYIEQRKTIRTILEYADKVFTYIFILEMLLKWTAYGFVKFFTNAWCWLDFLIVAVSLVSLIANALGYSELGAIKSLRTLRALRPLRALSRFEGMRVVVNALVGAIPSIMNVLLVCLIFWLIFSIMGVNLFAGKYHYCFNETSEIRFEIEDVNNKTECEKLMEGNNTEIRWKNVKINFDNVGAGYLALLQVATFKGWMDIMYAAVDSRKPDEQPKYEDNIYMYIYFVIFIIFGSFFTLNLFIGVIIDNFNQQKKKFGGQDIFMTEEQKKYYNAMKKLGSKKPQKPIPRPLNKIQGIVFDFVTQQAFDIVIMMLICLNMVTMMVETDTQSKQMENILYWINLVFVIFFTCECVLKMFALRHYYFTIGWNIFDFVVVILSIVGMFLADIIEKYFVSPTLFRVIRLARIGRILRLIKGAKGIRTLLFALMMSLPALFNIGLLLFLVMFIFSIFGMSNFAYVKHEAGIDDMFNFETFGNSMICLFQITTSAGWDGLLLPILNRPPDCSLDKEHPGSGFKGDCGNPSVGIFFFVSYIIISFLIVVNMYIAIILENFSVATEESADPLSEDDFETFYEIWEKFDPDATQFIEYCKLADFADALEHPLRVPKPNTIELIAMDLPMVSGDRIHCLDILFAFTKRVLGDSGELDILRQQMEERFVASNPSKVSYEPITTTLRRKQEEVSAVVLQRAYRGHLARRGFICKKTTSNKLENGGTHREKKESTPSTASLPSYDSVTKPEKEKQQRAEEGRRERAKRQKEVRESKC
For series [10], the target named is Sodium channel protein type 9 subunit alpha (Homo sapiens) (UniProt Q15858). The experiment in a line: Activation of human Nav1.7 expressed in HEK293 cells assessed as ratio of compound activation AUC to baseline activation AUC at 3.3 uM at -120 mV holding potential by Qpatch assay. The format is cell-based.
Series [11] deals with Sodium channel protein type 1 subunit alpha (Homo sapiens) (UniProt P35498). The experiment in a line: Activation of human Nav1.1 expressed in HEK293 cells at 3.3 uM at -120 mV holding potential by Qpatch assay relative to control. The format is cell-based.
Series [12] concerns the target Sodium channel protein type 1 subunit alpha (Mus musculus) (UniProt A2APX8). The experiment in a line: Activation of Nav1.1 in C57BL/6 mouse GABAergic cortical neurons assessed as rescue of ICA-121431-induced neuronal firing loss at 300 nM at holding potential -65 mV by current clamp assay.

The source made the active and inactive calls. No cut-off for these calls is given here. Non-standard residues stand in square brackets, D forms with d. Residues, ends and D or L forms follow the SMILES beside them. 1Nal = N[C@@H](Cc1cccc2ccccc12)C(=O)O; 2Nal = N[C@@H](Cc1ccc2ccccc2c1)C(=O)O

Turning to `CC[C@H](C)[C@H](NC(=O)[C@H](CCCNC(=N)N)NC(=O)[C@@H](NC(=O)[C@@H](N)CCCNC(=N)N)[C@@H](C)CC)C(=O)NCC(=O)N[C@@H](CC(C)C)C(=O)N[C@@H](Cc1ccc2ccccc2c1)C(=O)N[C@@H](CC(=O)O)C(=O)N[C@@H](CCC(N)=O)C(=O)N[C@@H](CC(C)C)C(=O)N[C@@H](CC(C)C)C(=O)N[C@@H](CCCNC(=N)N)C(=O)N[C@@H](CC(C)C)C(N)=O` (H-RIRIGL[2Nal]DQLLRL-NH2), the Ratio AUC worked out at 7.1 in [1]; 4.4 in series [2]; 1.4 in series [3]; 2.5 in [4]; 5.2 in series [5]; 12.7 in [6]. In addition, the Ratio AUC in [7] was 1.6; in [8] it was 1.3; in series [9], 8.1; in [10], 9.6. Also, in [11], the Activity turned out to be 1170%.

In the case of `CC[C@H](C)[C@H](NC(=O)[C@H](CCCCN)NC(=O)[C@@H](NC(=O)[C@@H](N)CCCNC(=N)N)[C@@H](C)CC)C(=O)NCC(=O)N[C@@H](CC(C)C)C(=O)N[C@@H](Cc1ccc2ccccc2c1)C(=O)N[C@@H](CC(=O)O)C(=O)N[C@@H](CCC(N)=O)C(=O)N[C@@H](CC(C)C)C(=O)N[C@@H](CO)C(=O)N[C@@H](CCCNC(=N)N)C(=O)N[C@@H](CC(C)C)C(N)=O` (H-RIKIGL[2Nal]DQLSRL-NH2), the Ratio AUC was 2.4 in series [1]; 1.9 in series [2]; 1.3 in [3]; 2.1 in series [4]; 5 in [5]; 10.7 in series [6]. The Ratio AUC in [7] worked out at 1.6; in series [8], 4; in series [9], 6.7; in series [10], 4.

For the molecule `CC[C@H](C)[C@H](NC(=O)[C@H](CCCCN)NC(=O)[C@@H](NC(=O)[C@@H](N)CCCNC(=N)N)[C@@H](C)CC)C(=O)NCC(=O)N[C@@H](CC(C)C)C(=O)N[C@@H](Cc1cccc2ccccc12)C(=O)N[C@@H](CC(=O)O)C(=O)N[C@@H](CCC(N)=O)C(=O)N[C@@H](CC(C)C)C(=O)N[C@@H](CO)C(=O)N[C@@H](CCCNC(=N)N)C(=O)N[C@@H](CC(C)C)C(N)=O` (H-RIKIGL[1Nal]DQLSRL-NH2), the Ratio AUC in [1] worked out at 1.8; in series [2], 2; in [3], 1; in series [4] it was 1.2; in [5], 1.8; in [6], 3.1. Also, the Ratio AUC in [7] worked out at 1.4; in series [8], 1.7; in [9], 3.1; in series [10] it was 2.9. For the same molecule, in [12], the outcome was Active.

Take `CC[C@H](C)[C@H](NC(=O)[C@H](CCCCN)NC(=O)[C@@H](NC(=O)[C@@H](N)CCCNC(=N)N)[C@@H](C)CC)C(=O)NCC(=O)N[C@@H](CC(C)C)C(=O)N[C@@H](Cc1ccccc1)C(=O)N[C@@H](CC(=O)O)C(=O)N[C@@H](CCC(N)=O)C(=O)N[C@@H](CC(C)C)C(=O)N[C@@H](CO)C(=O)N[C@@H](CCCNC(=N)N)C(=O)N[C@@H](CC(C)C)C(N)=O` (H-RIKIGLFDQLSRL-NH2): the Ratio AUC is 0.9 in series [1]; 1.2 in series [2]; 1 in series [3]; 1 in [4]; 1.1 in [5]; 1.4 in [6]. For the same molecule, the Ratio AUC in [7] turned out to be 0.8; in series [8], 1; in [9] it was 1.3; in series [10], 1.1. The Activity in series [11] is 40%.
